Measurements reported in patent publication US20100152156A1, “2-Azetidinone Derivatives For The Treatment Of Hyperlipidaemic Diseases” (ASTRAZENECA AB, priority 2005, published 2010).

Assays:
[1] = test system: ^14C-cholesterol absorption; assay: In vivo testing of cholesterol absorption inhibitors (A); conditions: procedure A, C57BL/6 female mice
Procedure: In Vivo Testing of Cholesterol Absorption Inhibitors (A)
C57BL/6 female mice were maintained on regular chow diet and housed in individual cages to collect faeces. Mice were fasted for 3 hours and then gavaged with vehicle or compound. Half an hour later the mice were gavaged with radiolabelled cholesterol. Six hours after the ^14C-cholesterol gavage blood samples were taken via the tail and plasma prepared to determine how much cholesterol were absorbed. 24 hours after the gavage of ^14C-cholesterol the mice were bled and plasma were prepared for analysis. Faeces were collected for 24 hours to assess absorption efficiency.

[2] = Absorption in a Caco-2 cells model; assay type: in vitro ADME; conditions: human
Procedure: Absorption of the compounds of formula (I) was tested in a Caco-2 cells model (Gastroenterology 1989, 96, 736): […]

SMILES	inhibition of ^14C-cholesterol absorption ([1]; administration of 0.2 mmol/kg by gavage) [%]	Papp [2] [nm/s]	inhibition of ^14C-cholesterol absorption ([1]; administration of 0.2 μmol/kg by gavage) [%]
CC(C)(C)[C@@H](NC(=O)CNC(=O)COc1ccc([C@@H]2[C@@H](SCC(O)c3ccc(F)cc3)C(=O)N2c2ccc(F)cc2)cc1)C(=O)NCC(=O)O (single isomer, unassigned) [Example 6, N-{[4-((2R,3R)-1-(4-fluorophenyl)-3-{[(2R or S)-2-(4-fluorophenyl)-2-hydroxyethyl]thio}-4-oxoazetidin-2-yl)phenoxy]acetyl}glycyl-3-methyl-D-valylglycine]	49	1.2	
CC(C)(C)[C@@H](NC(=O)CNC(=O)COc1ccc([C@@H]2[C@@H](SCC(O)c3ccc(F)cc3)C(=O)N2c2ccc(F)cc2)cc1)C(=O)N[C@H](CO)C(=O)O (single isomer, unassigned) [Example 7, N-{[4-((2R,3R)-1-(4-fluorophenyl)-3-{[(2R or S)-2-(4-fluorophenyl)-2-hydroxyethyl]thio}-4-oxoazetidin-2-yl)phenoxy]acetyl}glycyl-3-methyl-D-valyl-D-serine]			46
